Calls of active or inactive are those of the source.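 Rule for the calls: active = chemicals shown by follow-up kinetic tests to compete for rat estrogen receptor sites, with a measured inhibition constant; inconclusive = some binding seen but constant unmeasurable owing to poor solubility; inactive = no binding up to top dose, or binding unconfirmed.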

Chain of Estrogen receptor (Rattus norvegicus) (P06211 whole entry, looked up): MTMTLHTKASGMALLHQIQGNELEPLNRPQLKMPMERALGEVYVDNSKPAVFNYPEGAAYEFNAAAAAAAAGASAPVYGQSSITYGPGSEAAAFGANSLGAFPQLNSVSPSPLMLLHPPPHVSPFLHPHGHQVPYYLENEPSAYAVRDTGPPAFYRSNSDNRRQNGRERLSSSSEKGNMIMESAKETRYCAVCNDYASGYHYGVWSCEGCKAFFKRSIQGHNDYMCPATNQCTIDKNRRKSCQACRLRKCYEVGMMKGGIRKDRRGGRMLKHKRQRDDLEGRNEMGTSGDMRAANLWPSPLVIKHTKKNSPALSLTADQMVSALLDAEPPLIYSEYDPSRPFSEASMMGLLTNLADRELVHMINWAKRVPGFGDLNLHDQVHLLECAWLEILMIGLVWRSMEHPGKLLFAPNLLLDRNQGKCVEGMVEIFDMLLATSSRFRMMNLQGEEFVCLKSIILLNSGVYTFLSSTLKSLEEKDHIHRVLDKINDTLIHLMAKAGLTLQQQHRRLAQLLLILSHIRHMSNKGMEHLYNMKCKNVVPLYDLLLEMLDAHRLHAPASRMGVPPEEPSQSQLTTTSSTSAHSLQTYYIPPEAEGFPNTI

The target in the first data set is Estrogen receptor (Rattus norvegicus) (UniProt P06211). As to the kind of experiment: DSSTox (KIERBL) EPA Estrogen Receptor Ki Binding Study (Laws et al.) Database. To be noted: Rat uterine cytosol ER, 3H-estradiol competitive binding. As for the experimental part:
This study was conducted by EPA researchers to evaluate the validity of the rat uterine cytosolic (RUC) estrogen receptor (ER) competitive binding assay for use in the Endocrine Disruption Screening Program (EDSP). The assay measures the ability of radiolabeled 17-beta-estradiol (3H-E2) to bind with RUC ER in the presence of increasing concentrations of a test chemical. The goal is to employ this in vitro assay as a 1st tier screening tool for assessing the potential of structurally diverse environmental chemicals to bind to the ER, as well as to support research efforts to develop computational models to predict ER binding. A distinguishing feature of the present study was the use of secondary experimental analysis of binding curves and determination of Ki values to confirm that measured IC50 values corresponded to true positive results. The study concluded that a number of experimental conditions can confound interpretation of IC50 values obtained from the RUC ER-binding assay data and lead to false positive results. In particular, some chemical treatments likely alter the stability of the assay by changing the buffer pH, denaturing ER, or disrupting the ER binding kinetics. […] The chemicals used in this study were selected as part of a validation test for two Quantitative Structure-Activity Relationship (QSAR) models designed to predict ER binding [Fed. Reg. 67(250), 79618, Dec. 30, 2002]. Several hundred chemicals were initially screened, including approximately 100 chemicals selected from among the High Production Volume (HPV) chemicals included in EPA's Toxic Substances Control Act (TSCA) inventory that were predicted to be positive for ER binding, with the rest selected at random from the TSCA inventory. All chemicals were initially tested in ER competitive binding assays by Battelle Pacific Northwest Laboratories, Richland, Washington [EPA Contract Number 68-W-99-033, Task 6]. Approximately 50 chemicals produced binding curves that: (1) strongly implied competitive inhibition of ER binding, or (2) produced partial curves or irregular (non-sigmoid) binding curves. These chemicals were further evaluated in an ER competitive binding assay with secondary analysis to confirm true competitive inhibition and to determine an experimental Ki [U.S. EPA Contract 3D-5967-NTEX]. The results of RUC ER screening for these 50 structurally diverse chemicals, for which secondary confirmatory analyses were performed, were published in the Main Citation (Laws et al., 2006, Tox. Sci. 94:46-56). The remaining 228 chemicals were designated as non-binders based on initial screening studies.
The DSSTox KIERBL data files include all published IC50 and Ki experimental results for the 50 chemicals included in the Main Citation (Laws et al., 2006) (denoted Group 1), as well as previously unpublished results for an additional 228 structually diverse TSCA chemicals for which no ER binding was observed (denoted Group 2. IC50 values were determined for 32 compounds in Group 1 as the concentration of a test chemical that inhibits the maximal specific binding of 0.33 nM radiolabeled (3H) 17-beta-estradiol (E2) to rat uterine cytosolic (RUC) estrogen receptor (ER) by 50%. Confirmation of binding status was accomplished by secondary analysis using Lineweaver-Burk plots and slope replots to determine true competitive inhibition and an experimental Ki value. Ki is the inhibition constant for the test chemical, i.e., the concentration of the test chemical that will bind to half the binding sites at equilibrium (displacing half of the probe-bound receptors), in the absence of radioligand or other competitors. Ki reported as Mean +/- Standard Error from n=2 experiments (see StandardError_Ki_n2) and is determined from Lineweaver-Burk plots over the tested dose range (TestedRange_microM). For more information see BindingCurve_Group and BindingCurve_Details. […]
Take `ClC(Cl)C(Cl)Cl`: the outcome was “inactive; none”.
With `C=CC(=O)OCCC(C)OC(=O)C=C` (configuration not stated), the outcome was “inactive; none”.
Still for that read-out and setting: with `CCC(=O)O` the entry was “inactive; none”.
For the compound `CC(C)C(=O)C(C)C`, the outcome is “inactive; none”.
On the same count and under the same terms, with `CC(C)CCCCCOC(=O)CS` the entry was “inactive; none”; with `Cc1ccc([N+](=O)[O-])c(C)c1`, “inactive; none”; with `CCCCCCC1CCC(=O)O1` (configuration not stated), “inactive; none”.
For the compound `O=C(Oc1ccccc1)c1ccccc1O`, the outcome is “inactive; incomplete”.
Still for that read-out and setting: then `Cc1ccc(C(=O)c2ccccc2)cc1`, with “inactive; incomplete”; and `CCc1ccc(Br)cc1`, with “inactive; incomplete”.
The same measure, in the same setting: with `COc1ccccc1NC(=O)c1cc2ccccc2cc1O` the entry was “inactive; none”.
On the same count and under the same terms, then `CCN=C1C=CC(=C(c2ccc(N(CC)CC)cc2)c2ccc(N(CC)CC)cc2)c2ccccc21`, with “inactive; none”; and `CCCCCCCCOc1ccc(C(=O)c2ccccc2)c(O)c1`, with “inactive; none”; and `CCOc1ccc2c(c1)C(C)=CC(C)(C)N2`, with “inactive; none”.
With `CCCCN(CCCC)C(=S)[S-].CCCCN(CCCC)C(=S)[S-].[Ni+2]`, the outcome was “inactive; none”.
Consider `CC(CO)c1ccccc1` (configuration not stated), for which the outcome is “inactive; incomplete”.
Same read-out and setting: then `O=C1OC2(c3ccc(O)cc3Oc3cc(O)ccc32)c2ccccc21`, with “inactive; none”; and `c1ccc(CNc2ncnc3c2ncn3C2CCCCO2)cc1` (configuration not stated), with “inactive; none”; and `CCCCCCCCCCCCCCCCCCOC(=O)CCc1cc(C(C)(C)C)c(O)c(C(C)(C)C)c1`, with “inactive; none”.
On the same count and under the same terms, then `OCC1CC2C=CC1C2` (configuration not stated), with “inactive; none”; and `CC(O)C(=O)O` (configuration not stated), with “inactive; none”.
`O=CCCl`: the outcome was “inactive; none”.
Still for that read-out and setting: with `CCc1ccc(CC)cc1` the entry was “inactive; none”.
For `Oc1ccc2ccccc2c1N=Nc1ccccc1`, the outcome was “inactive; none”.
As for `C=CCCCCCCCCC=O`, the outcome was “inactive; incomplete”.
Still for that read-out and setting: with `ClC1(Cl)C2(Cl)C3(Cl)C4(Cl)C(Cl)(Cl)C5(Cl)C3(Cl)C1(Cl)C5(Cl)C24Cl` (configuration not stated) the entry was “inactive; none”; with `CC(C)(C)c1cc(C(C)(C)c2ccc(O)c(C(C)(C)C)c2)ccc1O`, “inactive; incomplete”.
In the case of `CC(c1cc(C(C)(C)C)cc(C(C)(C)C)c1O)c1cc(C(C)(C)C)cc(C(C)(C)C)c1O`, the outcome was “inactive; none”.
Same read-out and setting: with `O=Cc1ccccc1[N+](=O)[O-]` the entry was “inactive; none”; with `C=C(C)C(=O)OCCOCC`, “inactive; none”; with `CC(C)(C)c1cc(Cc2cc(C(C)(C)C)c(O)c(C(C)(C)C)c2)cc(C(C)(C)C)c1O`, “inactive; none”.
Still for that read-out and setting: then `Cc1ccc(C)c(O)c1C`, with “inactive; none”.
As for `O=[N+]([O-])c1c(Cl)c(Cl)c(Cl)c(Cl)c1Cl`, the outcome is “inactive; none”.
On the same count and under the same terms, then `CCCCCCCCCCCCCC(=O)OCCCC`, with “inactive; none”.
On the same count and under the same terms, then `Nc1ccc(/C=C/c2ccc(N)cc2S(=O)(=O)O)c(S(=O)(=O)O)c1`, with “inactive; none”; and `Cc1cscn1`, with “inactive; none”; and `CCCCCCCCCCCCCCCCCCCCCCCCO`, with “inactive; none”.
Consider `CO[Si](CCCN)(OC)OC`, for which the outcome is “inactive; none”.
For the compound `Cc1cc(Cc2cc(C)cc(C(C)(C)C)c2O)c(O)c(C(C)(C)C)c1`, the outcome was “inactive; none”.
The same measure, in the same setting: with `CCCCCCOC(C)=O` the entry was “inactive; none”.
`CCCCCCC`: the outcome is “inactive; none”.
Consider `O=C(O[C@@H](C(=O)O)[C@@H](OC(=O)c1ccccc1)C(=O)O)c1ccccc1`, for which the outcome was “inactive; none”.
On to `CCOP(=S)(OCC)SCn1c(=O)oc2cc(Cl)ccc21`, for which the outcome was “inactive; none”.
On to `O=C1CCC(=O)N1Br`, for which the outcome is “inactive; none”.
On the same count and under the same terms, with `CCO[Si](CCCN=C=O)(OCC)OCC` the entry was “inactive; none”.
On the same count and under the same terms, with `N#Cc1cc([N+](=O)[O-])ccc1N` the entry was “inactive; none”; with `O=C=NCc1cccc(CN=C=O)c1`, “inactive; none”; with `CCCCNCCCCCCNCCCC`, “inactive; none”.
Consider `O=C(O)c1cc(O)c2ccccc2c1O`, for which the outcome is “inactive; incomplete”.
Same read-out and setting: with `C1=CCCCC1` the entry was “inactive; none”; with `CCCCOCCCOC(=O)COc1ccc(Cl)cc1Cl`, “inactive; none”; with `Cc1cc(O)c(C(C)(C)C)cc1C(C)CC(c1cc(C(C)(C)C)c(O)cc1C)c1cc(C(C)(C)C)c(O)cc1C` (configuration not stated), “inactive; none”.
With `CCCCCCCC=O`, the outcome was “inactive; irregular”.
The same measure, in the same setting: then `CCCCCN(CCCCC)CCCCC`, with “inactive; none”; and `CCN(CC)c1nc(C)cc(OP(=S)(OC)OC)n1`, with “inactive; none”.
On to `Oc1ccc(Sc2ccc(O)cc2O)c(O)c1`, for which the outcome was “inactive; incomplete”.
On the same count and under the same terms, with `CCO[Si](CCCCl)(OCC)OCC` the entry was “inactive; none”; with `CN(C)Cc1cc(CN(C)C)c(O)c(CN(C)C)c1`, “inactive; none”.
Turning to `Nc1c(N=Nc2ccc([N+](=O)[O-])cc2)c(S(=O)(=O)O)cc2cc(S(=O)(=O)O)c(N=Nc3ccccc3)c(O)c12`, the outcome was “inactive; none”.
As to `CCC[CH2][Sn]([CH2]CCC)([CH2]CCC)[O][Sn]([CH2]CCC)([CH2]CCC)[CH2]CCC`, the outcome was “inactive; none”.
Take `CCOC(=O)/C=C/c1ccc(/C=C/C(=O)OCC)cc1`: the outcome is “inactive; none”.
For `C(=NC1CCCCC1)=NC1CCCCC1`, the outcome was “inactive; none”.
Turning to `CNC(=O)Oc1ccccc1OC(C)C`, the outcome is “inactive; none”.
As to `CCCCCCCC[Si](Cl)(Cl)Cl`, the outcome is “inactive; none”.
On the same count and under the same terms, with `CC/C=C\CCOC(=O)c1ccccc1O` the entry was “inactive; incomplete”.
As for `O=C=Nc1cccc(C(F)(F)F)c1`, the outcome was “inactive; none”.
For `NC(=O)c1ccc(N)cc1`, the outcome was “inactive; none”.
The same measure, in the same setting: with `OC1OCCOC1O` (configuration not stated) the entry was “inactive; none”.
Same read-out and setting: with `CC1COc2ccccc2N1C(=O)C(Cl)Cl` (configuration not stated) the entry was “inactive; none”; with `CC(C)COC(=O)CC(C(=O)OCC(C)C)S(=O)(=O)O` (configuration not stated), “inactive; none”.
Same read-out and setting: then `Cc1cc[cH-]c1.[C-]#[O+].[C-]#[O+].[C-]#[O+].[Mn]`, with “inactive; none”; and `O=C(O)c1ccccc1COc1ccccc1`, with “inactive; none”; and `CN(C)C(=O)Nc1ccc(Cl)c(Cl)c1`, with “inactive; none”.
As to `COC(=O)C(C)O` (configuration not stated), the outcome is “inactive; none”.
On to `O=C=NCCCCCCN=C=O`, for which the outcome is “inactive; none”.

The data set is the same for the next values; noted with them: Rat uterine cytosol ER, 3H-estradiol competitive binding; TestedRange_microM: 10-100.
As to `O=C(c1ccccc1)c1ccc(O)c(O)c1O`, the Potency was 103 µM.
On to `CCCCCCCCCCCCCCCCCC[N+](C)(C)C`, for which the outcome was “inactive; irregular”.

The data set is the same for the next values; noted with them: Rat uterine cytosol ER, 3H-estradiol competitive binding; TestedRange_microM: 20-70.
For `CC(c1ccc(O)cc1)(c1ccc(O)cc1)c1ccc(O)cc1`, the Potency is 18.3 µM.

The same data set, now with this note: Rat uterine cytosol ER, 3H-estradiol competitive binding; TestedRange_microM: 25-75.
Consider `O=C(OCc1ccccc1)c1ccc(O)cc1`, for which the Potency is 34.2 µM.
Take `CC(C)(c1ccc(O)cc1)c1ccc(O)cc1`: the Potency is 24.8 µM.

Still in this data set, the particulars now being: Rat uterine cytosol ER, 3H-estradiol competitive binding; TestedRange_microM: 30-200.
Consider `Cc1cc(O)ccc1Cl`, for which the Potency is 373 µM.
`O=C(Nc1ccc(Cl)c(Cl)c1)Nc1cc(Cl)ccc1Oc1ccc(Cl)cc1S(=O)(=O)O`: the outcome was “inactive; partial”.

The record behind these values is PubChem BioAssay AID1576 (EPA DSSTox, 2009).
